Laboratory results taken from patent US8344022B2, “Vaginal health products” (Kimberly-Clark Worldwide, Inc., priority 2004, dated 2013).
Where “and” joins values, the source holds several entries; their conditions need not be identical. Equal values may be shown once.

Tests used:
[1] = tested on: Human cervical epithelial cells (ME-180); experiment: ME-180 cell growth with jasmonic acid (hemocytometer counting); format: cell-based; conditions: 1, 10 and 100 μg/ml, two days
Method: Human cervical epithelial cells (ME-180, ATCC) were propagated in culture at 37° C. using 5% CO2 in McCoy's 5A media (Invitrogen) with 10% heat-inactivated fetal bovine serum (Invitrogen). Jasmonic acid (Sigma) was diluted in the ME-180 media to 100, 10, and 1 microgram/mL.
ME-180 cells were plated in 12-well plates at a concentration of 5×10^4 cells per well in 2 mL of media. The cells were allowed to grow for 1 day. Cells in three wells were counted by trypsinizing and using a hemocytometer to determine cell number on day zero. The media was removed from all other wells and was replaced with fresh media, 100, 10, or 1 μg/mL jasmonic acid-containing media (2 mL) in triplicate. Cells were counted on days 1 and 2 to determine the effect of the jasmonic acid on cell growth.

human skin keratinocytes = experiment: Keratinocyte proliferation, 96-well Cell Titer 96 assay; format: cell-based; conditions: for Cell Proliferation, Mean (absorbance at 490 nm) / Cell Proliferation, Median (absorbance at 490 nm): 48 hours, n=5
Method: The proliferative response of these human skin keratinocytes to the test compounds was measured in a 96-well assay system using keratinocyte basal medium (KBM, Clonetics, catalog number CC-3103) as a control. […] In addition, 100 μl of vehicle KBM was added to 5 wells as control. […] The spectrophotometric absorbance of each well was read at 490 nm.

[2] = tested on: collagen production in human skin fibroblast cell line; experiment: Collagen production by human skin fibroblasts (Takara EIA MK101); format: cell-based; conditions: for Collagen Production, Mean (absorbance at 450 nm) / Collagen Production, Median (absorbance at 450 nm): 48 hours, n=2
Method: The cells were first grown in a 96-well assay system using Dulbecco's Modified Eagle's Medium (DMEM) with 10% fetal bovine serum (FBS) both purchased from Sigma Chemical Co, St. Louis, Mo. Serum-free DMEM was used as a control.
The assay was done by using the recommended 20 ul of the supernatant from each well of the 96-well plate. Standard buffer and stop solutions were freshly prepared before running the assay. 100 ul of antibody-POD conjugate solution (supplied with the kit) was added into the wells using pre antibody coated 96 well plate (supplied with the kit). 20 ul of standard and test solutions (from the other 96-well plate containing fibroblasts) were added to appropriate wells. Plate was mixed gently, sealed and incubated for three hrs. at 37° C.
After incubation each well was washed carefully four times with PBS buffer (400 ul). All the wells were completely emptied at the end of washing from any liquid.
100 ul of substrate solution (hydrogen peroxide and tetramethylbenzidine in a buffer solution, supplied with the kit) was added to each well and the plate was incubated for 15 minutes. At this point 100 ul of stop solution (freshly prepared 1N H2SO4) was added to each well in the same order as substrate. The plate was gently mixed and absorbance was read at 450 nm.

[3] = tested on: fibronectin production in human skin fibroblast cell line; experiment: Fibronectin production by human skin fibroblasts (Takara EIA MK115); format: cell-based; conditions: for fibronectin production, Mean (absorbance at 450 nm) / fibronectin production, Median (absorbance at 450 nm): 48 hours, n=2
Method: The cells were first grown in a 96-well assay system using Dulbecco's Modified Eagle's Medium (DMEM) with 10% fetal bovine serum (FBS) both purchased from Sigma Chemical Co, St. Louis, Mo. Serum-free DMEM was used as a control. […] The fibronectin assay was performed using the recommended 100 μl of the supernatant from each well of the 96-well plate. Standard buffer and stop solutions were freshly prepared before running the assay. A pre-antibody-coated 96 well plate (provided with the kit) was used to transfer the test samples and control. The plate was mixed, sealed and incubated for 1 hour at 37° C. All the wells were washed after removing sample solutions, 3 times (300 μl) with washing buffer. 100 ul of antibody-POD conjugate solution was added into the wells. Plate was mixed, sealed and incubated for one hour at 37° C. Solutions were removed and the wells were washed 3 times with washing buffer. All the wells were completely emptied at the end of washing from any liquid. 100 μl of substrate solution (hydrogen peroxide and tetramethylbenzidine in a buffered solution) was added to each well and the plate was incubated at room temperature for 15 minutes. 100 μl of stop solution (freshly prepared 1N H2SO4) was added to each well in the same order as substrate. The plate was gently mixed and absorbance was read at 450 nm.

stratum corneum = experiment: Dansyl chloride cell renewal study in healthy female volunteers; format: in vivo, human
From the text: The stratum corneum renewal time is the time taken for the whole thickness of the stratum corneum to be exfoliated and replaced by new cells from the dividing epidermis. This renewal time is a fundamental indicator of skin health. […] See Jansen L H, Hojyo-Tomoko M T, Kligman A M., Improved fluorescence staining technique for estimating turnover of the human stratum corneum, Br J Dermatol., 90, 9-12, 1974; Ridge B D, Batt M D, Palmer H E, Jarrett A, The dansyl chloride technique for stratum corneum renewal as an indicator of changes in epidermal mitotic activity following topical treatment., Br J Dermatol., 118, 167-74, 1988; Grove G L, Kligman A M, Age-associated changes in human epidermal cell renewal., J Geron., 38, 137-142, 1983. The time required for the dye to disappear is therefore an indication of the turnover time of the stratum corneum. Therefore, any differences in the time required for the dye to disappear from treated and non-treated sites can be considered to be an expression of that product's ability to enhance epidermal renewal.
A dansyl chloride cell renewal study was conducted in healthy female volunteers ranging from 43-64 years of age. The study consisted of a two-week treatment period during which time the products were applied topically twice daily, including on weekend days, to the test sites. The area of application was designated, approximately 5 cm×10 cm on the upper inner arm. The other arm served as a control with no product application. […] Eight females received jasmonic acid and seven females received gibberellic acid.
The time required for a marker dye to disappear was used as the measure of cell renewal rate.

**Q.** Which “ME-180 epithelial cell growth (FIGS. 8 and 9)” value [1] does the source give for `CC/C=C\C[C@H]1C(=O)CC[C@@H]1CC(=O)O` [jasmonic acid] here?
**A.** increased cell growth in a dose dependent manner

**Q.** What about the “Cell Proliferation, Mean (absorbance at 490 nm)” value (from here on “Cell Proliferation, Mean”) (human skin keratinocytes; 1×10^−4 M) of the same molecule?
**A.** 0.5732

**Q.** And the “Cell Proliferation, Median (absorbance at 490 nm)” value (shortened to “Cell Proliferation, Median”) (human skin keratinocytes; 1×10^−4 M)?
**A.** 0.5860

**Q.** What about the “cell proliferating activity on human keratinocytes (summary in words)” value (human skin keratinocytes; 1×10^−4 to 1×10^−6 M) of the same molecule?
**A.** strong cell proliferating activity

**Q.** What about the “Cell Proliferation, Mean” value (human skin keratinocytes; 1×10^−5 M) of the same molecule?
**A.** 0.7628

**Q.** And the “Cell Proliferation, Median” value (human skin keratinocytes; 1×10^−5 M)?
**A.** 0.7750

**Q.** What about the “Cell Proliferation, Mean” value (human skin keratinocytes; 1×10^−6 M) of the same molecule?
**A.** 0.7734

**Q.** What about the “Cell Proliferation, Median” value (human skin keratinocytes; 1×10^−6 M) of the same molecule?
**A.** 0.7970

**Q.** And the “Collagen Production, Mean (absorbance at 450 nm)” value (from here on “Collagen Production, Mean”) ([2]; 1×10^−4 M)?
**A.** 0.8040

**Q.** And the “Collagen Production, Median (absorbance at 450 nm)” value (“Collagen Production, Median” below) ([2]; 1×10^−4 M)?
**A.** 0.8040

**Q.** What about the “collagen production in human fibroblasts (summary in words)” value ([2]; 1×10^−4 to 1×10^−6 M) of the same molecule?
**A.** stimulate collagen production

**Q.** What about the “Collagen Production, Mean” value ([2]; 1×10^−5 M) of the same molecule?
**A.** 0.7895

**Q.** What about the “Collagen Production, Median” value ([2]; 1×10^−5 M) of the same molecule?
**A.** 0.7895

**Q.** And the “Collagen Production, Mean” value ([2]; 1×10^−6 M)?
**A.** 0.7475

**Q.** And the “Collagen Production, Median” value ([2]; 1×10^−6 M)?
**A.** 0.7475

**Q.** And the “fibronectin production, Mean (absorbance at 450 nm)” value (“fibronectin production, Mean” for short) ([3]; 1×10^−4 M)?
**A.** 0.2060

**Q.** What about the “fibronectin production, Median (absorbance at 450 nm)” value (shortened to “fibronectin production, Median”) ([3]; 1×10^−4 M) of the same molecule?
**A.** 0.2060

**Q.** And the “fibronectin production, Mean” value ([3]; 1×10^−5 M)?
**A.** 0.2025

**Q.** And the “fibronectin production, Median” value ([3]; 1×10^−5 M)?
**A.** 0.2025

**Q.** And the “fibronectin production, Mean” value ([3]; 1×10^−6 M)?
**A.** 0.1955

**Q.** What about the “fibronectin production, Median” value ([3]; 1×10^−6 M) of the same molecule?
**A.** 0.1955

**Q.** What about the “fibronectin production in human fibroblasts (summary in words)” value ([3]; all concentrations tested, vs control) of the same molecule?
**A.** effective

**Q.** What about the “skin irritation or redness” value (stratum corneum; human, in vivo) of the same molecule?
**A.** no visible sign of any skin irritation or redness

**Q.** And the “RENEWAL, time for cell renewal of treated skin” value (stratum corneum; individual patients (one value per patient #), 0.25% in hyaluronic acid (0.5% aqueous solution), topical twice daily, upper inner arm, listed as JA)?
**A.** 16 Days and 15 Days (2×) and 17 Days and 14 Days and 11 Days and 12 Days (2×)

**Q.** And the “faster cell renewal rate over control” value (stratum corneum; overall, 0.25% topical, vs untreated arm)?
**A.** 28%

**Q.** What about the “reduction in time required for cell renewal vs untreated control” value (stratum corneum; vs volunteers' control without treatment) of the same molecule?
**A.** about 28%
